This assay relates to multiresistant Dd2 strain of Plasmodium falciparum. Nature of the assay: Antiplasmodial activity against Dd2 strain of Plasmodium falciparum ([8-3H]hypoxanthine incorporation). Particulars: 66 h, P. falciparum Dd2, 48 h + 18 h with [8-3H]hypoxanthine, 50% parasite growth inhibition, read-out: Antiplasmodia activity (IC50 class). In kind it is cell-based. How it is done: For the determination of the antiplasmodial activity of the compounds described above, the multiresistant Dd2 strain of Plasmodium falciparum was used. The incorporation of [8-^3H]hypoxanthine into the parasitic nucleic acids was measured. The plasmodia were incubated at 0.3% parasitaemia and an erythrocyte haematocrit of 2.5% in the presence of different concentrations of the compounds in a final volume of 200 μl. The medium employed was RPMI 1640 which contained 10% of heat-treated human serum and 3 mg/l of gentamycin. In the incubations, the concentrations of the compounds varied from 0.001 to 100 μM. After 48 h, each batch was treated with 50 μl of [8-^3H]hypoxanthine (1 mCi/ml) and incubated for a further 18 h. The cells were filtered off, washed and suspended in 20 μl of scintillation fluid. The radioactive hypoxanthine absorbed by the parasites was then quantified using a scintillation counter. The results were presented graphically and the IC50 value was determined using a fitting function. The value IC50, the ‘inhibition constant’, indicates the value in μMol/l at which 50% parasite growth inhibition occurs (R. E. Desjardins, et al., Antimicrobiol. Agent Chemother. 16, pp. 710-718, 1979; J. D. Chulay, et al., Exp. Parasitol. 55, pp. 138-146, 1983).

Each structure is given as a SMILES string.

On to `N=C(c1cccc(NC(=O)Nc2ccc(S(N)(=O)=O)cc2)c1)N1CCC(O)CC1` [Compound 2, 4-(3-(3-((4-hydroxypiperidin-1-yl)(imino)methyl)phenyl)ureido)benzenesulfonamide], for which the IC50 (commonly the concentration needed to halve the response being measured) is not below 1000 nM.

For the compound `N=C(c1cccc(NC(=O)Nc2ccc(S(N)(=O)=O)cc2)c1)N1CCNCC1` [Compound 3, 4-(3-(3-(imino(piperazin-1-yl)methyl)phenyl)ureido)benzenesulfonamide], the IC50 is not below 1000 nM.

As for `CCCCN1CCN(C(=N)c2cccc(NC(=O)Nc3ccc(S(=O)(=O)c4ccc(Br)cc4)cc3)c2)CC1` [Compound 4, 1-(4-(4-bromophenylsulfonyl)phenyl)-3-(3-((4-butylpiperazin-1-yl)(imino)methyl)phenyl)urea], the IC50 fell in the range of 210 to 990 nM.

`N=C(c1cccc(NC(=O)Nc2ccc(S(=O)(=O)c3ccc(Br)cc3)cc2)c1)N1CCC(O)CC1` [Compound 5, 1-(4-(4-bromophenylsulfonyl)phenyl)-3-(3-((4-hydroxypiperidin-1-yl)(imino)methyl)phenyl)urea]: the IC50 fell in the range of 20 to 200 nM.

`N=C(c1cccc(NC(=O)Nc2ccc(S(=O)(=O)c3ccc([N+](=O)[O-])cc3)cc2)c1)N1CCOCC1` [Compound 6, 1-(3-(imino(morpholino)methyl)phenyl)-3-(4-(4-nitrophenylsulfonyl)phenyl)urea]: the IC50 lay within 20 to 200 nM.

In the case of `N=C(c1cccc(NC(=O)Nc2ccc(S(=O)(=O)c3ccc([N+](=O)[O-])cc3)cc2)c1)N1CCCC1` [Compound 7, 1-(3-(imino(pyrrolidin-1-yl)methyl)phenyl)-3-(4-(4-nitrophenylsulfonyl)phenyl)urea], the IC50 was 20 to 200 nM.

Take `CN1CCN(C(=N)c2cccc(NC(=O)Nc3ccc(S(=O)(=O)c4ccc([N+](=O)[O-])cc4)cc3)c2)CC1` [Compound 8, 1-(3-(imino(4-methylpiperazin-1-yl)methyl)phenyl)-3-(4-(4-nitrophenylsulfonyl)phenyl)urea]: the IC50 is not below 1000 nM.

For the compound `N=C(c1cccc(NC(=O)Nc2ccc(S(=O)(=O)c3ccc([N+](=O)[O-])cc3)cc2)c1)N1CCSC1` [Compound 9, 1-(3-(imino(thiazolidin-3-yl)methyl)phenyl)-3-(4-(4-nitrophenylsulfonyl)phenyl)urea], the IC50 was not below 1000 nM.

For the compound `N=C(c1cccc(NC(=O)Nc2ccc(S(=O)(=O)c3ccc([N+](=O)[O-])cc3)cc2)c1)N1CCC(O)CC1` [Compound 10, 1-(3-((4-hydroxypiperidin-1-yl)(imino)methyl)phenyl)-3-(4-(4-nitrophenylsulfonyl)phenyl)urea], the IC50 is 20 to 200 nM.

For `N=C(c1cccc(NC(=O)Nc2ccc(S(=O)(=O)c3ccc(Cl)cc3)cc2)c1)N1CCC(O)CC1` [Compound 11, 1-(4-(4-chlorophenylsulfonyl)phenyl)-3-(3-((4-hydroxypiperidin-1-yl)(imino)methyl)phenyl)urea], the half-inhibitory concentration (IC50) was 20 to 200 nM.

Take `N=C(c1cccc(NC(=O)Nc2ccc(S(=O)(=O)c3ccc(Br)cc3)cc2)c1)N1CCC(CO)CC1` [Compound 12, 1-(4-(4-bromophenylsulfonyl)phenyl)-3-(3-((4-(hydroxymethyl)piperidin-1-yl)(imino)methyl)phenyl)urea]: the IC50 is not below 1000 nM.

As to `COCCN(CCOC)C(=N)c1cccc(NC(=O)Nc2ccc(S(=O)(=O)c3ccc(Br)cc3)cc2)c1` [Compound 13, 3-(3-(4-(4-bromophenylsulfonyl)phenyl)ureido)-N,N-bis(2-methoxyethyl)benzimidamide], the IC50 is not below 1000 nM.

For the compound `N=C(c1cccc(NC(=O)Nc2ccc(S(=O)(=O)c3ccc(Br)cc3)cc2)c1)N1CCSCC1` [Compound 14, 1-(4-(4-bromophenylsulfonyl)phenyl)-3-(3-(imino(thiomorpholino)methyl)phenyl)urea], the IC50 was in the range of 20 to 200 nM.

For the compound `N=C(c1cccc(NC(=O)Nc2ccc(S(=O)(=O)c3ccc(Br)cc3)cc2)c1)N1CCCC1` [Compound 15, 1-(4-(4-bromophenylsulfonyl)phenyl)-3-(3-(imino(pyrrolidin-1-yl)methyl)phenyl)urea], the IC50 was 20 to 200 nM.

In the case of `N=C(c1cccc(NC(=O)Nc2ccc(S(=O)(=O)c3ccc(Br)cc3)cc2)c1)N1CCC(C(N)=O)CC1` [Compound 16, 1-((3-(3-(4-(4-bromophenylsulfonyl)phenyl)ureido)phenyl)(imino)methyl)piperidine-4-carboxamide], the IC50 lay in the range of 20 to 200 nM.

On to `N=C(c1cccc(NC(=O)Nc2ccc(S(=O)(=O)c3ccc(N)cc3)cc2)c1)N1CCC(O)CC1` [Compound 17, 1-(4-(4-aminophenylsulfonyl)phenyl)-3-(3-((4-hydroxypiperidin-1-yl)(imino)methyl)phenyl)urea], for which the IC50 was not below 1000 nM.

Take `CCCCN1CCN(C(=N)c2cccc(NC(=O)Nc3ccc(S(=O)(=O)NC)cc3)c2)CC1` [Compound 18, 4-(3-(3-((4-butylpiperazin-1-yl)(imino)methyl)phenyl)ureido)-N-methylbenzenesulfonamide]: the IC50 is not below 1000 nM.

For the compound `CCCCN1CCN(C(=N)c2cccc(NC(=O)Nc3ccc(S(=O)(=O)NCCC)cc3)c2)CC1` [Compound 19, 4-(3-(3-((4-butylpiperazin-1-yl)(imino)methyl)phenyl)ureido)-N-propylbenzenesulfonamide], the 50% inhibitory concentration (IC50) was not below 1000 nM.

For the compound `CCCCN1CCN(C(=N)c2cccc(NC(=O)Nc3ccc(S(=O)(=O)N(CCO)CCO)cc3)c2)CC1` [Compound 20, 4-(3-(3-((4-butylpiperazin-1-yl)(imino)methyl)phenyl)ureido)-N,N-bis(2-hydroxyethyl)benzenesulfonamide], the IC50 is not below 1000 nM.

`CCCCN1CCN(C(=N)c2cccc(NC(=O)Nc3ccc(S(=O)(=O)N4CCOCC4)cc3)c2)CC1` [Compound 21, 1-(3-((4-butylpiperazin-1-yl)(imino)methyl)phenyl)-3-(4-(morpholinosulfonyl)phenyl)urea]: the IC50 was not below 1000 nM.

`CCCCN1CCN(C(=N)c2cccc(NC(=O)Nc3ccc(S(=O)(=O)Nc4ccnc5cc(Cl)ccc45)cc3)c2)CC1` [Compound 22, 4-(3-(3-((4-butylpiperazin-1-yl)(imino)methyl)phenyl)ureido)-N-(7-chloroquinolin-4-yl)benzenesulfonamide]: the IC50 is not below 1000 nM.

In the case of `COC(=O)N1CCN(C(=N)c2cccc(NC(=O)Nc3ccc(S(=O)(=O)Nc4ccc(S(N)(=O)=O)cc4)cc3)c2)CC1` [Compound 24, methyl 4-(imino(3-(3-(4-(N-(4-sulfamoylphenyl)sulfamoyl)phenyl)ureido)phenyl)methyl)piperazine-1-carboxylate], the IC50 was not below 1000 nM.

`N=C(c1cccc(NC(=O)Nc2ccc(S(=O)(=O)Nc3ccc(S(N)(=O)=O)cc3)cc2)c1)N1CCOCC1` [Compound 25, 4-(3-(3-(imino(morpholino)methyl)phenyl)ureido)-N-(4-sulfamoylphenyl)benzenesulfonamide]: the IC50 was not below 1000 nM.

Regarding `CN1CCN(C(=N)c2cccc(NC(=O)Nc3ccc(S(=O)(=O)Nc4ccc(S(N)(=O)=O)cc4)cc3)c2)CC1` [Compound 26, 4-(3-(3-(imino(4-methylpiperazin-1-yl)methyl)phenyl)ureido)-N-(4-sulfamoylphenyl)benzenesulfonamide], the concentration for half-maximal inhibition (IC50) is not below 1000 nM.

As for `N=C(c1cccc(NC(=O)Nc2ccc(S(=O)(=O)NCc3ccc(S(N)(=O)=O)cc3)cc2)c1)N1CCC(=O)CC1` [Compound 27, 4-(3-(3-(imino(4-oxopiperidin-1-yl)methyl)phenyl)ureido)-N-(4-sulfamoylbenzyl)benzenesulfonamide], the IC50 was in the range of 210 to 990 nM.

With `N=C(c1cccc(NC(=O)Nc2ccc(S(=O)(=O)NCc3ccc(S(N)(=O)=O)cc3)cc2)c1)N1CCN(CCO)CC1` [Compound 28, 4-(3-(3-((4-(2-hydroxyethyl)piperazin-1-yl)(imino)methyl)phenyl)ureido)-N-(4-sulfamoylbenzyl)benzenesulfonamide], the IC50 is 20 to 200 nM.

As for `N=C(c1cccc(NC(=O)Nc2ccc(S(=O)(=O)NCc3ccc(S(N)(=O)=O)cc3)cc2)c1)N1CCC(CO)CC1` [Compound 29, 4-(3-(3-((4-(hydroxymethyl)piperidin-1-yl)(imino)methyl)phenyl)ureido)-N-(4-sulfamoylbenzyl)benzenesulfonamide], the IC50 is 210 to 990 nM.

As for `CCN(CCO)C(=N)c1cccc(NC(=O)Nc2ccc(S(=O)(=O)NCc3ccc(S(N)(=O)=O)cc3)cc2)c1` [Compound 30, N-ethyl-N-(2-hydroxyethyl)-3-(3-(4-(N-(4-sulfamoylbenzyl)sulfamoyl)phenyl)ureido)benzimidamide], the 50% inhibitory concentration (IC50) was 210 to 990 nM.

For `N=C(c1cccc(NC(=O)Nc2ccc(S(=O)(=O)NCc3ccc(S(N)(=O)=O)cc3)cc2)c1)N1CCSCC1` [Compound 31, 4-(3-(3-(imino(thiomorpholino)methyl)phenyl)ureido)-N-(4-sulfamoylbenzyl)benzenesulfonamide], the IC50 was in the range of 210 to 990 nM.

For the compound `COCCN(CCOC)C(=N)c1cccc(NC(=O)Nc2ccc(S(=O)(=O)NCc3ccc(S(N)(=O)=O)cc3)cc2)c1` [Compound 32, N,N-bis(2-methoxyethyl)-3-(3-(4-(N-(4-sulfamoylbenzyl)sulfamoyl)phenyl)ureido)benzimidamide], the IC50 lay in the range of 210 to 990 nM.

Regarding `N=C(c1cccc(NC(=O)Nc2ccc(S(=O)(=O)NCc3ccc(S(N)(=O)=O)cc3)cc2)c1)N1CCC(C(N)=O)CC1` [Compound 33, 1-(imino(3-(3-(4-(N-(4-sulfamoylbenzyl)sulfamoyl)-phenyl)ureido)phenyl)methyl)piperidine-4-carboxamide], the IC50 fell in the range of 20 to 200 nM.

Values taken from patent US8343963B2, “Sulfamoyl-phenyl-ureido compounds and their use as medicament” (4SC AG, priority 2009, dated 2013).
